Experimental data published in PubChem BioAssay AID1963862 (Molecular Pharmacology Branch, DTP, NCI, 2024).

Tested on: KRAS patient-derived spheroids with HUVEC/MSC, viability
Assay: Anticancer human tumor 941728-121-R-J1-PDC patient-derived lung adenocarcinoma cell line growth inhibition [KRAS2]
Details: for IC50: curve of first compound; for viability, T/C: stronger effect = lower value
Method in brief: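 KRAS-mutant tumor cells were grown as spheroids with HUVEC endothelial cells and human MSCs as stroma. Targeted agents were tested alone and with KRAS pathway inhibitors. Doses started at or near clinical Cmax, or 10 microM, descending half-log.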

[1] = second compound 0.1 µM, first compound 0.0316 µM
[2] = second compound 0.316 µM, first compound 0.0316 µM
[3] = second compound 1 µM, first compound 0.0316 µM
[4] = second compound 3.16 µM, first compound 0.0316 µM
[5] = second compound 10 µM, first compound 0.0316 µM
[6] = second compound 0.1 µM, first compound 0.1 µM
[7] = second compound 0.1 µM, first compound 0.316 µM
[8] = second compound 0.1 µM, first compound 1 µM
[9] = second compound 0.1 µM, first compound 3.16 µM
[10] = second compound 0.1 µM, first compound 10 µM
[11] = second compound 0.316 µM, first compound 0.1 µM
[12] = second compound 0.316 µM, first compound 0.316 µM
[13] = second compound 0.316 µM, first compound 1 µM
[14] = second compound 0.316 µM, first compound 3.16 µM
[15] = second compound 0.316 µM, first compound 10 µM
[16] = second compound 1 µM, first compound 0.1 µM
[17] = second compound 1 µM, first compound 0.316 µM
[18] = second compound 1 µM, first compound 1 µM
[19] = second compound 1 µM, first compound 3.16 µM
[20] = second compound 1 µM, first compound 10 µM
[21] = second compound 3.16 µM, first compound 0.1 µM
[22] = second compound 3.16 µM, first compound 0.316 µM
[23] = second compound 3.16 µM, first compound 1 µM
[24] = second compound 3.16 µM, first compound 3.16 µM
[25] = second compound 3.16 µM, first compound 10 µM
[26] = second compound 10 µM, first compound 0.1 µM
[27] = second compound 10 µM, first compound 0.316 µM
[28] = second compound 10 µM, first compound 1 µM
[29] = second compound 10 µM, first compound 3.16 µM
[30] = second compound 10 µM, first compound 10 µM
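Also: spheroids exposed to agents for seven days before readout.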

Structure (SMILES): CC(=O)Nc1cccc(-n2c(=O)n(C3CC3)c(=O)c3c(Nc4ccc(I)cc4F)n(C)c(=O)c(C)c32)c1 + CC1OCC2(CCN(c3cnc(Sc4ccnc(N)c4Cl)c(N)n3)CC2)C1N
- IC50 (second compound 0.1 µM): < 0.1 nM
- IC50 (second compound 0.316 µM): < 0.1 nM
- IC50 (second compound 1 µM): < 0.1 nM
- IC50 (second compound 3.16 µM): < 0.1 nM
- IC50 (second compound 10 µM): < 0.1 nM
- viability, T/C (second compound 0.1 µM, first compound 0.0001 µM): 47.1%
- viability, T/C (second compound 0.1 µM, first compound 0.000316 µM): 40.5%
- viability, T/C (second compound 0.1 µM, first compound 0.001 µM): 40.2%
- viability, T/C (second compound 0.1 µM, first compound 0.00316 µM): 39.1%
- viability, T/C (second compound 0.1 µM, first compound 0.01 µM): 36.4%
- viability, T/C [1]: 27.9%
- viability, T/C (second compound 0.316 µM, first compound 0.0001 µM): 38.1%
- viability, T/C (second compound 0.316 µM, first compound 0.000316 µM): 39.2%
- viability, T/C (second compound 0.316 µM, first compound 0.001 µM): 34.3%
- viability, T/C (second compound 0.316 µM, first compound 0.00316 µM): 30.9%
- viability, T/C (second compound 0.316 µM, first compound 0.01 µM): 26.4%
- viability, T/C [2]: 23.1%
- viability, T/C (second compound 1 µM, first compound 0.0001 µM): 32.4%
- viability, T/C (second compound 1 µM, first compound 0.000316 µM): 31.1%
- viability, T/C (second compound 1 µM, first compound 0.001 µM): 24.8%
- viability, T/C (second compound 1 µM, first compound 0.00316 µM): 22%
- viability, T/C (second compound 1 µM, first compound 0.01 µM): 21.4%
- viability, T/C [3]: 18.2%
- viability, T/C (second compound 3.16 µM, first compound 0.0001 µM): 21.6%
- viability, T/C (second compound 3.16 µM, first compound 0.000316 µM): 17.2%
- viability, T/C (second compound 3.16 µM, first compound 0.001 µM): 14.5%
- viability, T/C (second compound 3.16 µM, first compound 0.00316 µM): 15.1%
- viability, T/C (second compound 3.16 µM, first compound 0.01 µM): 14.5%
- viability, T/C [4]: 13.6%
- viability, T/C (second compound 10 µM, first compound 0.0001 µM): 15.2%
- viability, T/C (second compound 10 µM, first compound 0.000316 µM): 12.9%
- viability, T/C (second compound 10 µM, first compound 0.001 µM): 11.8%
- viability, T/C (second compound 10 µM, first compound 0.00316 µM): 10.4%
- viability, T/C (second compound 10 µM, first compound 0.01 µM): 12.7%
- viability, T/C [5]: 10.6%

Structure (SMILES): COC(=O)c1ccc2c(C(=Nc3ccc(N(C)C(=O)CN4CCN(C)CC4)cc3)c3ccccc3)c(O)[nH]c2c1 + CC1OCC2(CCN(c3cnc(Sc4ccnc(N)c4Cl)c(N)n3)CC2)C1N
- IC50 (second compound 0.1 µM): < 31.6 nM
- IC50 (second compound 0.316 µM): < 31.6 nM
- IC50 (second compound 1 µM): < 31.6 nM
- IC50 (second compound 3.16 µM): < 31.6 nM
- IC50 (second compound 10 µM): < 31.6 nM
- viability, T/C [1]: 39.2%
- viability, T/C [6]: 35.5%
- viability, T/C [7]: 36.7%
- viability, T/C [8]: 37.2%
- viability, T/C [9]: 36.6%
- viability, T/C [10]: 38.2%
- viability, T/C [2]: 35.3%
- viability, T/C [11]: 32.1%
- viability, T/C [12]: 28.8%
- viability, T/C [13]: 28.8%
- viability, T/C [14]: 24.6%
- viability, T/C [15]: 25.6%
- viability, T/C [3]: 34.4%
- viability, T/C [16]: 25.5%
- viability, T/C [17]: 18.5%
- viability, T/C [18]: 20.4%
- viability, T/C [19]: 15.4%
- viability, T/C [20]: 19.5%
- viability, T/C [4]: 29.1%
- viability, T/C [21]: 23.2%
- viability, T/C [22]: 17%
- viability, T/C [23]: 12.7%
- viability, T/C [24]: 10.5%
- viability, T/C [25]: 10.7%
- viability, T/C [5]: 21.2%
- viability, T/C [26]: 16%
- viability, T/C [27]: 9.59%
- viability, T/C [28]: 8.94%
- viability, T/C [29]: 3.3%
- viability, T/C [30]: 1.71%

Structure (SMILES): COc1cc(Nc2ncc3c(n2)-c2ccc(Cl)cc2C(c2c(F)cccc2OC)=NC3)ccc1C(=O)O + CC1OCC2(CCN(c3cnc(Sc4ccnc(N)c4Cl)c(N)n3)CC2)C1N
- IC50 (second compound 0.1 µM): 137 nM
- IC50 (second compound 0.316 µM): < 31.6 nM
- IC50 (second compound 1 µM): < 31.6 nM
- IC50 (second compound 3.16 µM): < 31.6 nM
- IC50 (second compound 10 µM): < 31.6 nM
- viability, T/C [1]: 53.1%
- viability, T/C [6]: 47.6%
- viability, T/C [7]: 48.5%
- viability, T/C [8]: 48.5%
- viability, T/C [9]: 50.3%
- viability, T/C [10]: 41.6%
- viability, T/C [2]: 42.3%
- viability, T/C [11]: 41.9%
- viability, T/C [12]: 40.2%
- viability, T/C [13]: 39.2%
- viability, T/C [14]: 36.6%
- viability, T/C [15]: 35.3%
- viability, T/C [3]: 29.8%
- viability, T/C [16]: 33.4%
- viability, T/C [17]: 36.6%
- viability, T/C [18]: 34.6%
- viability, T/C [19]: 28%
- viability, T/C [20]: 23.9%
- viability, T/C [4]: 23.7%
- viability, T/C [21]: 25.4%
- viability, T/C [22]: 26.9%
- viability, T/C [23]: 26.6%
- viability, T/C [24]: 13%
- viability, T/C [25]: 14.5%
- viability, T/C [5]: 16%
- viability, T/C [26]: 15.4%
- viability, T/C [27]: 13.4%
- viability, T/C [28]: 13.6%
- viability, T/C [29]: 12.4%
- viability, T/C [30]: 9.18%

Structure (SMILES): O=C(c1cc(Cc2n[nH]c(=O)c3ccccc23)ccc1F)N1CCN(C(=O)C2CC2)CC1 + CC1OCC2(CCN(c3cnc(Sc4ccnc(N)c4Cl)c(N)n3)CC2)C1N
- IC50 (second compound 0.1 µM): < 31.6 nM
- IC50 (second compound 0.316 µM): < 31.6 nM
- IC50 (second compound 1 µM): 87.3 nM
- IC50 (second compound 3.16 µM): < 31.6 nM
- IC50 (second compound 10 µM): < 31.6 nM
- viability, T/C [1]: 50.3%
- viability, T/C [6]: 47.7%
- viability, T/C [7]: 48.3%
- viability, T/C [8]: 53.1%
- viability, T/C [9]: 62.1%
- viability, T/C [10]: 69.7%
- viability, T/C [2]: 41.9%
- viability, T/C [11]: 45.4%
- viability, T/C [12]: 52.8%
- viability, T/C [13]: 53.7%
- viability, T/C [14]: 57.8%
- viability, T/C [15]: 60.7%
- viability, T/C [3]: 65.1%
- viability, T/C [16]: 45%
- viability, T/C [17]: 45.7%
- viability, T/C [18]: 41.6%
- viability, T/C [19]: 49%
- viability, T/C [20]: 58.6%
- viability, T/C [4]: 31.9%
- viability, T/C [21]: 36.3%
- viability, T/C [22]: 35.3%
- viability, T/C [23]: 38.2%
- viability, T/C [24]: 41.3%
- viability, T/C [25]: 45.7%
- viability, T/C [5]: 26.1%
- viability, T/C [26]: 22.3%
- viability, T/C [27]: 29.6%
- viability, T/C [28]: 28.5%
- viability, T/C [29]: 35.1%
- viability, T/C [30]: 29.3%
